According to PubChem BioAssay AID256 (DTP/NCI, 2004):
Where “and” joins values, the source holds several entries; their conditions need not be identical. Equal values may be shown once. Inconclusive results and toxic doses are left out.

System: CD2F1 mice, L1210 leukemia ip, survival T/C
Experiment: NCI In Vivo Anticancer Drug Screen. Data for tumor model L1210 Leukemia (intraperitoneal) in CD2F1 (CDF1) mice
Conditions: higher = longer survival
In short: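 Tumor-bearing mice (transplanted tumor) were split into treated and vehicle control groups, and the measured endpoint of each treated group was divided by that of its vehicle controls.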

[1] = endpoint: mean survival time, dose: 400.0 mg/kg/injection, schedule: Q01DX009 (ip), vehicle: saline with Tween-80
[2] = endpoint: mean survival time, dose: 50.0 mg/kg/injection, schedule: Q01DX009 (ip), vehicle: saline with Tween-80
[3] = endpoint: mean survival time, dose: 100.0 mg/kg/injection, schedule: Q01DX009 (ip), vehicle: saline with Tween-80
[4] = endpoint: mean survival time, dose: 100.0 mg/kg/injection, schedule: Q04DX003 (ip), vehicle: saline with Tween-80
[5] = endpoint: mean survival time, dose: 200.0 mg/kg/injection, schedule: Q01DX009 (ip), vehicle: saline with Tween-80
[6] = endpoint: mean survival time, dose: 200.0 mg/kg/injection, schedule: Q04DX003 (ip), vehicle: saline with Tween-80
[7] = endpoint: mean survival time, dose: 400.0 mg/kg/injection, schedule: Q04DX003 (ip), vehicle: saline with Tween-80

CN=C(N)N(C)C
T/C (endpoint: mean survival time, dose: 100.0 mg/kg/injection, schedule: Q01DX001 (ip), vehicle: saline): 101 % of control
T/C (endpoint: mean survival time, dose: 200.0 mg/kg/injection, schedule: Q01DX001 (ip), vehicle: saline): 101 % of control
T/C (endpoint: mean survival time, dose: 400.0 mg/kg/injection, schedule: Q01DX001 (ip), vehicle: saline): 95 % of control

O=C1CN=C(c2ccccn2)c2cc(Cl)ccc2N1
T/C (endpoint: mean survival time, dose: 267.0 mg/kg/injection, schedule: Q01DX009 (ip), vehicle: saline with Tween-80): 92 % of control
T/C [1]: 92 % of control

Cc1nn(CCO)c(C)c1N=[N+]([O-])c1c(C)nn(CCO)c1C
T/C (endpoint: mean survival time, dose: 3.12 mg/kg/injection, schedule: Q01DX009 (ip), vehicle: Klucel (hydroxypropylcellulose) (HPC)): 102 % of control
T/C (endpoint: mean survival time, dose: 3.12 mg/kg/injection, schedule: Q01DX009 (ip), vehicle: saline with Tween-80): 98 % of control
T/C (endpoint: mean survival time, dose: 6.25 mg/kg/injection, schedule: Q01DX009 (ip), vehicle: Klucel (hydroxypropylcellulose) (HPC)): 95 % of control
T/C (endpoint: mean survival time, dose: 6.25 mg/kg/injection, schedule: Q01DX009 (ip), vehicle: saline with Tween-80): 103 % of control
T/C (endpoint: mean survival time, dose: 12.5 mg/kg/injection, schedule: Q01DX009 (ip), vehicle: Klucel (hydroxypropylcellulose) (HPC)): 96 % of control
T/C (endpoint: mean survival time, dose: 12.5 mg/kg/injection, schedule: Q01DX009 (ip), vehicle: saline with Tween-80): 104 % of control
T/C (endpoint: mean survival time, dose: 25.0 mg/kg/injection, schedule: Q01DX009 (ip), vehicle: Klucel (hydroxypropylcellulose) (HPC)): 95 % of control
T/C (endpoint: mean survival time, dose: 25.0 mg/kg/injection, schedule: Q01DX009 (ip), vehicle: saline with Tween-80): 106 % of control
T/C (endpoint: mean survival time, dose: 50.0 mg/kg/injection, schedule: Q01DX009 (ip), vehicle: Klucel (hydroxypropylcellulose) (HPC)): 101 % of control
T/C [2]: 103 % of control
T/C (endpoint: mean survival time, dose: 50.0 mg/kg/injection, schedule: Q04DX003 (ip), vehicle: Klucel (hydroxypropylcellulose) (HPC)): 113 % of control
T/C (endpoint: mean survival time, dose: 100.0 mg/kg/injection, schedule: Q01DX009 (ip), vehicle: Klucel (hydroxypropylcellulose) (HPC)): 95 % of control
T/C (endpoint: mean survival time, dose: 100.0 mg/kg/injection, schedule: Q04DX003 (ip), vehicle: Klucel (hydroxypropylcellulose) (HPC)): 117 % of control

N=Cc1c(O)n(C2CCCCC2)c(=O)n(C2CCCCC2)c1=O
T/C [3]: 105 % of control
T/C [4]: 95 % of control
T/C [5]: 100 % of control
T/C [6]: 96 % of control
T/C [1]: 107 % of control
T/C [7]: 96 % of control

CC(C)CCCC(C)C1CCC2C3=CCC4CC(O)CCC4(C)C3CCC21C (stereo not given)
T/C [4]: 100 % of control
T/C [6]: 91 % of control
T/C [7]: 94 % of control

c1cc2nc(c1)CSCCCCCCCCSC2
T/C [3]: 88 % of control
T/C [5]: 91 % of control
T/C [1]: 95 % of control

COc1ccccc1NC(N)=O
T/C [3]: 95 % of control
T/C [5]: 86 % of control
T/C [1]: 95 % of control

C[P+](c1ccc(Cl)cc1)(c1ccc(Cl)cc1)c1ccc(Cl)cc1
T/C (endpoint: mean survival time, dose: 6.25 mg/kg/injection, schedule: Q01DX009 (ip), vehicle: saline): 119 % of control
T/C (endpoint: mean survival time, dose: 12.5 mg/kg/injection, schedule: Q01DX009 (ip), vehicle: saline): 107 % of control
T/C (endpoint: mean survival time, dose: 25.0 mg/kg/injection, schedule: Q01DX009 (ip), vehicle: saline): 109 % of control

CCNc1nc(NCC)nc(SC)n1
T/C [2]: 100 % of control
T/C [3]: 89 % of control
T/C [4]: 100 % of control
T/C [6]: 97 % of control

CC/C=C(\CC)CO
T/C [2]: 100 % of control
T/C [3]: 95 % of control
T/C [5]: 100 % of control

O=c1nc(NC2CCCCCCCCCCC2)ccn1C1OC(CO)C(O)C1O (stereo not given)
T/C (endpoint: median survival time, dose: 12.5 mg/kg/injection, schedule: Q01DX005 (ip), vehicle: distilled water + Tween-80): 101 % of control
T/C (endpoint: median survival time, dose: 25.0 mg/kg/injection, schedule: Q01DX005 (ip), vehicle: distilled water + Tween-80): 102 % of control
T/C (endpoint: median survival time, dose: 50.0 mg/kg/injection, schedule: Q01DX005 (ip), vehicle: distilled water + Tween-80): 105 % of control
T/C (endpoint: median survival time, dose: 100.0 mg/kg/injection, schedule: Q01DX005 (ip), vehicle: distilled water + Tween-80): 93 % of control
T/C (endpoint: median survival time, dose: 200.0 mg/kg/injection, schedule: Q01DX005 (ip), vehicle: distilled water + Tween-80): 86 % of control

Cc1cn(C2CC(O)C(CO)O2)c(=O)nc1NCc1ccco1 (stereo not given)
T/C (endpoint: median survival time, dose: 12.5 mg/kg/injection, schedule: Q01DX005 (ip), vehicle: water): 103 % of control
T/C (endpoint: median survival time, dose: 25.0 mg/kg/injection, schedule: Q01DX005 (ip), vehicle: water): 103 % of control
T/C (endpoint: median survival time, dose: 50.0 mg/kg/injection, schedule: Q01DX005 (ip), vehicle: water): 104 % of control
T/C (endpoint: median survival time, dose: 100.0 mg/kg/injection, schedule: Q01DX005 (ip), vehicle: water): 105 % of control
T/C (endpoint: median survival time, dose: 200.0 mg/kg/injection, schedule: Q01DX005 (ip), vehicle: water): 102 % of control

O=c1[nH]nc(-c2cccc3ccccc23)c2ccccc12
T/C [4]: 97 % of control
T/C [6]: 94 % of control
T/C [7]: 97 % of control

COC(=O)c1ccc(SSc2ccc(C(=O)OC)cc2[N+](=O)[O-])c([N+](=O)[O-])c1
T/C [4]: 103 % of control
T/C [6]: 96 % of control
T/C [7]: 96 % of control

CN(C)CC1CCCCC1OC(=O)c1ccccc1 (stereo not given)
T/C (endpoint: mean survival time, dose: 25.0 mg/kg/injection, schedule: Q04DX003 (ip), vehicle: saline with Tween-80): 93 % of control
T/C (endpoint: mean survival time, dose: 50.0 mg/kg/injection, schedule: Q04DX003 (ip), vehicle: saline with Tween-80): 97 % of control
T/C [4]: 97 % of control
T/C (endpoint: mean survival time, dose: 100.0 mg/kg/injection, schedule: Q04DX003 (ip), vehicle: water): 96 % of control

CN1CCCC1CCNc1nc(-c2ccc(C(Cl)(Cl)Cl)cc2)nc(C(Cl)(Cl)Cl)n1 (stereo not given)
T/C (endpoint: mean survival time, dose: 100.0 mg/kg/injection, schedule: Q01DX001 (ip), vehicle: saline with Tween-80): 95 % of control
T/C [3]: 95 % of control
T/C (endpoint: mean survival time, dose: 200.0 mg/kg/injection, schedule: Q01DX001 (ip), vehicle: saline with Tween-80): 95 % of control
T/C (endpoint: mean survival time, dose: 400.0 mg/kg/injection, schedule: Q01DX001 (ip), vehicle: saline with Tween-80): 94 % of control

C=CCN(CC#N)CC#N
T/C (endpoint: mean survival time, dose: 2.5 mg/kg/injection, schedule: Q04DX003 (ip), vehicle: Klucel (hydroxypropylcellulose) (HPC)): 106 % of control
T/C (endpoint: mean survival time, dose: 5.0 mg/kg/injection, schedule: Q04DX003 (ip), vehicle: Klucel (hydroxypropylcellulose) (HPC)): 97 % of control
T/C (endpoint: mean survival time, dose: 10.0 mg/kg/injection, schedule: Q04DX003 (ip), vehicle: Klucel (hydroxypropylcellulose) (HPC)): 105 % of control

O=C(O)c1c2c(nc3c(Cl)cccc13)-c1ccccc1C2
T/C [3]: 102 % of control
T/C [5]: 107 % of control

CN(Cc1cnc2nc(N[Si](C)(C)C)nc(N[Si](C)(C)C)c2n1)c1ccc(C(=O)NC(CCC(=O)O[Si](C)(C)C)C(=O)O[Si](C)(C)C)cc1 (stereo not given)
T/C (endpoint: mean survival time, dose: 1.25 mg/kg/injection, schedule: Q01DX009 (ip), vehicle: saline): 159 % of control
T/C (endpoint: mean survival time, dose: 1.9 mg/kg/injection, schedule: Q04DX003 (ip), vehicle: saline): 117 % of control
T/C (endpoint: mean survival time, dose: 2.5 mg/kg/injection, schedule: Q01DX009 (ip), vehicle: saline): 172 % of control
T/C (endpoint: mean survival time, dose: 7.5 mg/kg/injection, schedule: Q04DX003 (ip), vehicle: saline): 159 % of control
T/C (endpoint: mean survival time, dose: 15.0 mg/kg/injection, schedule: Q04DX003 (ip), vehicle: saline): 178 % of control
T/C (endpoint: mean survival time, dose: 20.0 mg/kg/injection, schedule: Q01DX009 (ip), vehicle: saline): 103 % of control
T/C (endpoint: mean survival time, dose: 30.0 mg/kg/injection, schedule: Q04DX003 (ip), vehicle: saline): 193 % of control
T/C (endpoint: mean survival time, dose: 60.0 mg/kg/injection, schedule: Q04DX003 (ip), vehicle: saline): 155 % of control
T/C (endpoint: mean survival time, dose: 120.0 mg/kg/injection, schedule: Q04DX003 (ip), vehicle: saline): 117 % of control

O=C1C=CC(=O)N1Cc1ccco1
T/C (endpoint: mean survival time, dose: 100.0 mg/kg/injection, schedule: Q04DX003 (ip), vehicle: saline): 102 % of control
T/C (endpoint: mean survival time, dose: 200.0 mg/kg/injection, schedule: Q04DX003 (ip), vehicle: saline): 95 % of control
T/C (endpoint: mean survival time, dose: 400.0 mg/kg/injection, schedule: Q04DX003 (ip), vehicle: saline): 90 % of control

CCCCN=C=C(c1ccccc1)c1ccccc1
T/C (endpoint: mean survival time, dose: 25.0 mg/kg/injection, schedule: Q04DX002 (ip), vehicle: other): 97 % of control
T/C (endpoint: mean survival time, dose: 50.0 mg/kg/injection, schedule: Q04DX002 (ip), vehicle: other): 86 % of control
T/C (endpoint: mean survival time, dose: 100.0 mg/kg/injection, schedule: Q04DX002 (ip), vehicle: other): 89 % of control

CC(C)(C)C(=O)CC(O)(C(F)(F)Cl)C(F)(F)Cl
T/C [2]: 111 % of control
T/C [3]: 116 % of control and 108 % of control
T/C [5]: 92 % of control and 95 % of control
T/C [1]: 113 % of control

Cc1nc(SCc2ccccc2)[nH]c(=O)c1CCO
T/C [4]: 96 % of control
T/C [6]: 96 % of control

CC(CC(C)C(=O)O)C(=O)O (stereo not given)
T/C [3]: 100 % of control
T/C [5]: 105 % of control

C=C(C)CC(O)CCCCCC (stereo not given)
T/C [2]: 98 % of control
T/C [3]: 110 % of control
T/C [5]: 107 % of control

Cc1ccc(NC(=O)N(CCCl)N=O)cc1Cl
T/C (endpoint: mean survival time, dose: 13.0 mg/kg/injection, schedule: Q01DX001 (ip), vehicle: carboxymethylcellulose (CMC)): 176 % of control

NC(=S)N/N=C\c1ncccc1O
T/C (endpoint: mean survival time, dose: 25.0 mg/kg/injection, schedule: Q03HX024 (ip), vehicle: saline): 120 % of control
